Laboratory results from patent US9867377B2, “Composition comprising a biological control agent and an insecticide” (Bayer CropScience AG, priority 2012, dated 2018).

Key:
Format in all cases: in vivo
[1] = test system: two spotted spidermite (Tetranychus urticae); test: Tetranychus urticae - spray test, OP-resistant; settings: mortality, infested French beans sprayed
Protocol: (§1) Formula for the efficacy of the combination of two compounds • The expected efficacy of a given combination of two compounds is calculated as follows (see Colby, S. R., “Calculating Synergistic and antagonistic Responses of Herbicide Combinations”, Weeds 15, pp. 20-22, 1967): • If • X is the efficacy expressed in % mortality of the untreated control for test compound A at a concentration of m ppm respectively m g/ha, • Y is the efficacy expressed in % mortality of the untreated control for test compound B at a concentration of n ppm respectively n g/ha, • E is the efficacy expressed in % mortality of the untreated control using the mixture of A and B at m and n ppm respectively m and n g/ha, • then is
(§2) [formula] • If the observed insecticidal efficacy of the combination is higher than the one calculated as, “E”, then the combination of the two compounds is more than additive, i.e., there is a synergistic effect.
Tetranychus urticae—Spray Test, OP-Resistant
(§3) Solvent: 78.0 parts by weight acetone • 1.5 parts by weight dimethylformamide
(§4) Emulsifier: alkylaryl polyglycol ether
(§5) To produce a suitable preparation of active compound, 1 part by weight of active compound is mixed with the stated amount of solvents and is diluted with water, containing an emulsifier concentration of 1000 ppm, to the desired concentration. To produce a suitable preparation of a spore suspension the spores are diluted with emulsifier containing water to the desired concentration. Further test concentrations are prepared by dilution with emulsifier containing water.
French beans (Phaseolus vulgaris) which are heavily infested with all stages of the two spotted spidermite (Tetranychus urticae), are sprayed with a preparation of the active ingredient of the desired concentration.
After the specified period of time, mortality in % is determined. 100% means all spider mites have been killed and 0% means none of the spider mites have been killed. The mortality values determined thus are recalculated using the Colby-formula (see sheet 1).

[2] = test system: mustard beetle larvae (Phaedon cochleariae); test: Phaedon cochleariae - spray test; settings: mortality, Chinese cabbage leaf disks sprayed
Protocol: as §1, §2
Phaedon cochleariae—Spray Test
Solvent: 78.0 parts by weight of acetone • • 1.5 parts by weight of dimethylformamide
Emulsifier: alkylaryl polyglycol ether […]
After the specified period of time, mortality in % is determined. […] The mortality values determined thus are recalculated using the Colby-formula (see sheet 1).

[3] = test system: green peach aphid (Myzus persicae); test: Myzus persicae - spray test; settings: mortality, infested Chinese cabbage leaf disks sprayed; for Efficacy in % after 6 d: 0.4 g ai/ha
Protocol: as §1, §2
Myzus persicae—Spray Test
as §3, §4, §5
Chinese cabbage (Brassica pekinensis) leaf-disks infected with all instars of the green peach aphid (Myzus persicae) are sprayed with a preparation of the active ingredient of the desired concentration.
After the specified period of time, mortality in % is determined. 100% means all aphids have been killed; 0% means none of the aphids have been killed. The mortality values determined thus are recalculated using the Colby-formula (see sheet 1).

Cc1cc(F)c(-n2nc(C(F)(F)F)nc2N)cc1[S+]([O-])CC(F)(F)F (stereo not shown) [AMSI 378, 1-{2-fluoro-4-methyl-5-[(2,2,2-trifluorethyl)sulfinyl]phenyl}-3-(trifluoromethyl)-1H-1,2,4-triazol-5-amine]
Efficacy in % after 2 d ([1]; 4 g ai/ha): 30%
Efficacy in % after 6 d ([1]; 4 g ai/ha): 0%

CNC(=O)c1cc(C#N)cc(C)c1NC(=O)c1cc(Cn2nnc(C(F)(F)F)n2)nn1-c1ncccc1Cl [BCS-CL73507]
Efficacy in % after 6 d ([2]; 0.08 g ai/ha): 0%
Efficacy in % after 6 d [3]: 0%

O=C(NCCc1ncc(C(F)(F)F)cc1Cl)c1ccccc1C(F)(F)F [Fluopyram]
Efficacy in % after 6 d ([2]; 100 g ai/ha): 0%
Efficacy in % after 1 d ([3]; 1000 g ai/ha): 0%

O=C1C=C(N(Cc2ccc(Cl)nc2)CC(F)F)CO1 [Flupyradifurone]
Efficacy in % after 6 d ([1]; 250 g ai/ha): 0%
Efficacy in % after 1 d ([3]; 20 g ai/ha): 0%

Cc1cc(C)c(C2=C(OC(=O)CC(C)(C)C)C3(CCCC3)OC2=O)c(C)c1 [Spiromesifen]
Efficacy in % after 6 d ([1]; 0.5 g ai/ha): 0%

CCOC(=O)OC1=C(c2cc(C)ccc2C)C(=O)N[C@]12CC[C@@H](OC)CC2 [Spirotetramat]
Efficacy in % after 6 d [3]: 0%
